From patent US11091486B2, “Process for the preparation of pyrazolo[1,5-a]pyrimidines and salts thereof” (Array BioPharma Inc., priority 2016, dated 2021)

Key:
Format in all cases: physicochemical
[1] = Gravimetric vapor sorption (GVS)
Method: Approximately 10-20 mg of sample was placed into a mesh vapor sorption balance pan and loaded into an IGASorp Moisture Sorption Analyzer balance by Hiden Analytical. […] After completion of the sorption cycle, the sample was dried using the same procedure to 0% RH, and finally taken back to the starting point of 40% RH. The weight change during the sorption/desorption cycles were plotted, allowing for the hygroscopic nature of the sample to be determined.

[2] = Salt disproportionation studies; conditions: deionized water, 24 h at ambient temperature
Method: Salt disproportionation studies were carried out as follows: 20 mg of prepared salts were weighed into a vial and 0.5 mL of deionized water was added. The samples were then agitated for 24 h at ambient temperature. The pH of the samples was taken pre- and post-agitation. Any solids recovered were submitted for XRPD analysis to determine any changes to form.

[3] = Hydration screen in acetone/water mixtures; conditions: 24 hr
Method: Hydration screen was carried out as follows: 10 mg of prepared salts were suspended in several acetone/water mixtures of various water activities (low: aw=0.281, medium: aw=0.776 and high: aw=0.919) and agitated at ambient temperatures for 24 hr. Any recovered solids were submitted for XRPD analysis to determine any changes to form.

[4] = 1-week stability tests (40° C./75% RH, 80° C., ambient light), XRPD and UPLC
Text: Compound 1 (Form I) was subjected to various different environmental conditions to assess stability.

[5] = Thermodynamic solubility of prepared salts
Method: Thermodynamic solubility studies were carried out as follows: 10 mg of prepared salts were suspended in pH 1, 4.5, 6.8 and un-buffered water (300 μL). The pH of the slurries was measured and adjusted accordingly using either 0.2M HCl solution or 0.2M sodium hydroxide solution. The slurries were agitated for 24 hours at ambient temperature using an incubator shaker.

[6] = Dynamic vapor sorption (DVS); conditions: post-DVS XRPD
Method: Approximately, 10 mg of sample was placed into a mesh vapor sorption balance pan and loaded into a DVS-1 dynamic vapor sorption balance by Surface Measurement Systems. The sample was subjected to a ramping profile from 40-90% relative humidity (RH) at 10% increments, maintaining the sample at each step until a stable weight had been achieved (99.5% step completion). After completion of the sorption cycle, the sample was dried using the same procedure to 0% RH and then a second sorption cycle back to 40% RH. The weight change during the sorption/desorption cycles were plotted, allowing for the hygroscopic nature of the sample to be determined. XRPD analysis was then carried out on any solid retained.

[7] = medium water activity (aw=0.776)

CS(=O)(=O)O.C[C@@H]1CCc2ncc(F)cc2[C@H]2CCCN2c2ccn3ncc(c3n2)C(=O)N1 [Compound 1 mesylate]
Hygroscopicity, mass uptake by GVS ([1]; at 90% RH): about 32%
Crystalline form by XRPD after exposure to GVS humidity conditions ([1]; post-GVS XRPD): desolvate and become the mesylate form seen in the salt screen
Salt disproportionation: recovered material by XRPD [2]: no change to form
Hydration study: recovered solid by XRPD ([3]; high water activity (aw=0.919)): free base
Hydration study: recovered solid by XRPD ([3]; low water activity (aw=0.281)): a mixture of free base and salt
Hydration study: recovered solid by XRPD [3, 7]: mesylate salt
1-week stability test: change in purity (UPLC) ([4]; 40° C./75% RH): no change to purity
1-week stability test: change in purity (UPLC) ([4]; 80° C.): no change to purity
1-week stability test: change in purity (UPLC) ([4]; ambient light): no change to purity
Thermodynamic solubility in words ([5]; pH 1): moderately soluble
Solid recovered from thermodynamic solubility slurry (XRPD) ([5]; pH 4.5): mesylate salt
Thermodynamic solubility in words ([5]; pH 4.5): moderately soluble
Solid recovered from thermodynamic solubility slurry (XRPD) ([5]; pH 6.8): free base
Thermodynamic solubility in words ([5]; pH 6.8): low solubility
Solid recovered from thermodynamic solubility slurry (XRPD) ([5]; unbuffered water): free base
Thermodynamic solubility in words ([5]; unbuffered water): moderately soluble

C[C@@H]1CCc2ncc(F)cc2[C@H]2CCCN2c2ccn3ncc(c3n2)C(=O)N1.O=C(O)CC(O)(CC(=O)O)C(=O)O [Compound 1 citrate]
Salt disproportionation: recovered material by XRPD [2]: poorly crystalline citrate salt
Hydration study: recovered solid by XRPD ([3]; high water activity (aw=0.919)): poorly crystalline citrate salt
Hydration study: recovered solid by XRPD ([3]; low water activity (aw=0.281)): poorly crystalline citrate salt
Hydration study: recovered solid by XRPD [3, 7]: unknown form
Crystalline form by XRPD after exposure to DVS humidity conditions [6]: no changes in crystalline form
1-week stability test: change in purity (UPLC) ([4]; 40° C./75% RH): no change to purity
1-week stability test: change to form (XRPD) ([4]; 40° C./75% RH): no change to form
1-week stability test: change in purity (UPLC) ([4]; 80° C.): no change to purity
1-week stability test: change to form (XRPD) ([4]; 80° C.): no change to form
1-week stability test: change in purity (UPLC) ([4]; ambient light): no change to purity
1-week stability test: change to form (XRPD) ([4]; ambient light): no change to form
Solid recovered from thermodynamic solubility slurry (XRPD) ([5]; pH 1): poorly crystalline solids
Thermodynamic solubility in words ([5]; pH 1): high solubility
Solid recovered from thermodynamic solubility slurry (XRPD) ([5]; pH 4.5): Compound 1 citrate
Thermodynamic solubility in words ([5]; pH 4.5): lower solubility
Solid recovered from thermodynamic solubility slurry (XRPD) ([5]; pH 6.8): poorly crystalline free base
Thermodynamic solubility in words ([5]; pH 6.8): lower solubility
Solid recovered from thermodynamic solubility slurry (XRPD) ([5]; unbuffered water): Compound 1 citrate
Thermodynamic solubility in words ([5]; unbuffered water): highly soluble
